Data published in ChEMBL document CHEMBL5523719, “Structure-activity relationship study of new carbazole sulfonamide derivatives as anticancer agents with dual-target mechanism” (Eur J Med Chem, 2024).
pIC50: −log10 of the molar value. Calls of active or inactive are those of the source. No cut-off for these calls is given here.

Legend:
MDA-MB-231 = assay: Antiproliferation activity against human MDA-MB-231 cells measured after 72 hrs incubation by MTT assay; format: functional, cell-based; details: MDA-MB-231, 72 h
MIA PaCa-2 = assay: Antiproliferation activity against human MIA PaCa-2 cells measured after 72 hrs incubation by MTT assay; format: functional, cell-based; details: MIA PaCa-2, 72 h
L02 = assay: Antiproliferation activity against human L02 cells measured after 72 hrs incubation by MTT assay; format: functional, cell-based; details: L02, 72 h
KB = assay: Antiproliferation activity against human KB cells measured after 72 hrs incubation by MTT assay; format: functional, cell-based
NCI-H460 = assay: Antiproliferation activity against human NCI-H460 cells measured after 72 hrs incubation by MTT assay; format: functional, cell-based; details: NCI-H460, 72 h
MCF7 [1] = assay: In vivo antitumor activity against human MCF7 cells xenografted in BALB/c mouse assessed as inhibition of Ki-67 expression treated at 50 mg/kg, iv every other day for 26 days; format: functional, organism-based; details: time 26.0 day
HepG2 [2] = assay: In vivo antitumor activity against human HepG2 cells xenografted in mouse assessed as inhibition of tumor growth treated at 50 mg/kg, iv every other day for 22 days relative to control; format: functional; details: HepG2, 528 h, time 22 day, read-out: TGI
MCF7 [3] = assay: In vivo antitumor activity against human MCF7 cells xenografted in BALB/c mouse assessed as increase in cleaved caspase-3 treated at 50 mg/kg, iv every other day for 26 days; format: functional, organism-based; details: time 26.0 day
[4] = Toxicity in mouse xenografted with human HepG2 cells assessed as body weight change at 10 to 20 mg/kg, iv every other day for 22 days; format: organism-based; details: in vivo, 528 h, dose 10-20 mg/kg, time 22 day
MCF7 [5] = assay: In vivo antitumor activity against human MCF7 cells xenografted in BALB/c mouse assessed as decrease in tumor volume treated at 50 mg/kg, iv every other day for 26 days relative to control; format: functional; details: MCF7, 624 h, time 26 day
MCF7 [6] = assay: Antiproliferation activity against human MCF7 cells measured after 72 hrs incubation by MTT assay; format: functional, cell-based; details: MCF7, 72 h
NCI/ADR-RES = assay: Antiproliferation activity against human MCF7/ADR cells measured after 72 hrs incubation by MTT assay; format: functional, cell-based
[7] = Solubility of the compound; format: physicochemical
Bel-7402 = assay: Antiproliferation activity against human Bel-7402 cells measured after 72 hrs incubation by MTT assay; format: functional, cell-based; details: Bel-7402, 72 h
HepG2 [8] = assay: In vivo antitumor activity against human HepG2 cells xenografted in mouse assessed as inhibition of tumor growth treated iv every other day for 22 days; format: functional, organism-based; details: time 22.0 day
HMEC-1 [9] = assay: Anti-proliferative activity against human HMEC-1 cells measured after 48 hrs; format: functional, cell-based; details: HMEC-1, 48 h
MCF7 [10] = assay: Induction of cell cycle arrest in human MCF7 cells assessed as accumulation of cells at G2/M phase at 500 nM measured after 24 hrs by flow cytometry (reference value: 22.84%); format: functional
MCF7 [11] = assay: Induction of cell cycle arrest in human MCF7 cells assessed as accumulation of cells at G0/G1 phase at 500 nM measured after 24 hrs by flow cytometry (reference value: 61.73%); format: functional
MCF7 [12] = assay: Induction of apoptosis in human MCF7 cells assessed as early apoptotic cells at 50 nM measured after 48 hrs by AnnexinV/PI double staining assays (reference value: 5.32%); format: functional
MCF7 [13] = assay: Induction of apoptosis in human MCF7 cells assessed as multinuclear cells at 50 nM measured after 24 hrs by fluorescent microscopy; format: functional, cell-based
HMEC-1 [14] = assay: Angiogenic activity against human HMEC-1 cells assessed as decrease in vascular area measured after 48 hrs by Endothelial tube formation assay; format: functional, cell-based; details: dose 1-100 nM
MCF7 [15] = assay: Induction of apoptosis in human MCF7 cells assessed as late apoptotic cells at 50 nM measured after 48 hrs by AnnexinV/PI double staining assays (reference value: 2.60%); format: functional
HMEC-1 [16] = assay: Anti-migration activity in human HMEC-1 cells assessed as inhibition of cell migration at 5 nM measured after 48 hrs by Scratching assay; format: functional, cell-based
MCF7 [17] = assay: Induction of apoptosis in human MCF7 cells assessed as necrotic cells at 50 nM measured after 48 hrs by AnnexinV/PI double staining assays (reference value: 0.89%); format: functional
MCF7 [18] = assay: Induction of apoptosis in human MCF7 cells assessed as viable cells at 50 nM measured after 48 hrs by AnnexinV/PI double staining assays (reference value: 91.20%); format: functional; details: read-out: Activity
[19] = AUC (0 to last) in Sprague-Dawley rat at 10 mg/kg, iv; format: ADME, organism-based; details: in vivo
[20] = MRT (0 to last) in Sprague-Dawley rat at 10 mg/kg, iv; format: ADME, organism-based; details: in vivo
[21] = Half life in Sprague-Dawley rat at 10 mg/kg, iv; format: ADME, organism-based; details: in vivo
[22] = Clearance in Sprague-Dawley rat at 10 mg/kg, iv; format: ADME, organism-based; details: in vivo
HepG2 [23] = assay: In vivo antitumor activity against human HepG2 cells xenografted in mouse assessed as inhibition of tumor growth treated at 20 mg/kg, iv every other day for 22 days relative to control; format: functional; details: HepG2, 528 h, time 22 day, read-out: TGI
[24] = Initial plasma concentration in Sprague-Dawley rat at 10 mg/kg, iv; format: ADME, organism-based

SMILES | pIC50 (MDA-MB-231) | pIC50 (MIA PaCa-2) | pIC50 (L02) | pIC50 (KB) | pIC50 (NCI-H460) | solubility [7] | pIC50 (Bel-7402) | other results
COc1ccc(OC)c(NS(=O)(=O)c2ccc3c(c2)c2ccc(N)cc2n3C)c1 | 7.72 | 7.70 | 7.93 | 7.74 | 7.59 | – | – | –
COc1ccc(/C=C\c2cc(OC)c(OC)c(OC)c2)cc1OP(=O)([O-])[O-].[Na+].[Na+] [FOSBRETABULIN DISODIUM] | 8.44 | 8.28 | 6.85 | 9.18 | 9.54 | – | – | Activity (MCF7 [1]): Active; inhibition in vivo at 50 mg/kg (HepG2 [2]): 72%; Activity (MCF7 [3]): Active; Activity [4]: Non-Toxic; inhibition in vivo at 50 mg/kg (MCF7 [5]): 77%
CC(=O)O[C@H]1C(=O)[C@@]2(C)[C@H]([C@H](OC(=O)c3ccccc3)[C@]3(O)C[C@H](OC(=O)[C@H](O)[C@@H](NC(=O)c4ccccc4)c4ccccc4)C(C)=C1C3(C)C)[C@]1(OC(C)=O)CO[C@@H]1C[C@@H]2O [PACLITAXEL] | – | – | – | – | – | – | – | pIC50 (MCF7 [6]): 7.54; pIC50 (NCI/ADR-RES): 6.33
COc1cc(NS(=O)(=O)c2ccc3c(c2)c2ccc(N)cc2n3C)c(OC)cc1N | 7.07 | 7.48 | 7.51 | 7.10 | 7.12 | – | – | –
COc1ccc(NS(=O)(=O)c2ccc3c(c2)c2ccc(N)cc2n3C)c(OC)c1 | 6.81 | 7.24 | 7.37 | – | – | – | – | –
COc1ccc(NS(=O)(=O)c2ccc3c(c2)c2ccc(NC(=O)CCN(C)C)cc2n3C)c(OC)n1.Cl | – | – | – | – | – | 11000 µg/mL | 5.30 | –
Cn1c2ccc(S(=O)(=O)Nc3cccc(-c4ccn[nH]4)c3)cc2c2ccc(N)cc21 | 7.14 | 7.21 | 7.02 | 6.61 | 6.49 | – | – | –
COc1ccc(NS(=O)(=O)c2ccc3c(c2)c2ccc(NC(=O)CN4CCN(C)CC4)cc2n3C)c(OC)n1.Cl | – | – | – | – | – | 27000 µg/mL | 4.73 | –
COc1cc(OC)c(NS(=O)(=O)c2ccc3c(c2)c2ccc(N)cc2n3C)c(OC)c1 | 7.40 | 7.51 | 7.51 | 7.74 | 7.85 | – | – | –
COc1ccc(NS(=O)(=O)c2ccc3c(c2)c2ccc(NC(=O)[C@@H](N)Cc4ccc(O)cc4)cc2n3C)c(OC)n1.Cl | – | – | – | – | – | 2000 µg/mL | 5.73 | –
COc1ccc(NS(=O)(=O)c2ccc3c(c2)c2ccc(NC(=O)[C@@H](N)CO)cc2n3C)c(OC)n1.Cl | – | – | – | – | – | 2000 µg/mL | 5.84 | TGI (HepG2 [8]): Dose-Dependent Effect; Activity [4]: Non-Toxic
COc1ccc(NS(=O)(=O)c2ccc3c(c2)c2ccc(NC(=O)CCN4CCOCC4)cc2n3C)c(OC)n1.Cl | – | – | – | – | – | 13000 µg/mL | 4.86 | –
COc1ccc(NS(=O)(=O)c2ccc3c(c2)c2ccc(O)cc2n3C)c(OC)c1 | 7.08 | 7.28 | 7.26 | 7.10 | 7.39 | – | – | –
COc1cc(OC)c(NS(=O)(=O)c2ccc3c(c2)c2ccc(O)cc2n3C)cc1Cl | 7.38 | 7.26 | 7.48 | 7.15 | 7.84 | – | – | –
COc1cc(NS(=O)(=O)c2ccc3c(c2)c2ccc(N)cc2n3C)cc(OC)c1OC | 7.79 | 7.61 | 7.68 | 7.46 | 7.88 | – | – | –
COc1ccc(NS(=O)(=O)c2ccc3c(c2)c2ccc(NC(=O)CN4CCCCC4)cc2n3C)c(OC)n1.Cl | – | – | – | – | – | 4700 µg/mL | 5.09 | –
COc1ccc(OC)c(NS(=O)(=O)c2ccc3c(c2)c2ccc(O)cc2n3C)c1 | 9.03 | 9.07 | 7.34 | 7.76 | 7.90 | – | – | –
COc1ccc(NS(=O)(=O)c2ccc3c(c2)c2ccc(NC(=O)CN(C)C)cc2n3C)c(OC)n1.Cl | – | – | – | – | – | 25000 µg/mL | 5.85 | –
CN1CCN(Cc2ccc(NS(=O)(=O)c3ccc4c(c3)c3ccc(O)cc3n4C)cc2C(F)(F)F)CC1 | – | < 6.40 | < 6.40 | < 6.40 | < 6.40 | – | – | –
COc1ccc(/C=C\c2cc(OC)c(OC)c(OC)c2)cc1O [COMBRETASTATIN A4] | – | – | – | – | – | – | – | pIC50 (MCF7 [6]): 7.49; pIC50 (HMEC-1 [9]): 8.19; pIC50 (NCI/ADR-RES): 7.90; Activity (MCF7 [10]): 3.4%; Activity (MCF7 [11]): 3.41%
COc1cc([C@@H]2c3cc4c(cc3[C@H](O)[C@H]3COC(=O)[C@H]23)OCO4)cc(OC)c1OC [PODOFILOX] | 7.09 | 7.71 | 7.48 | 8.49 | 7.61 | – | 7.40 | –
COc1cc(OC)c(NS(=O)(=O)c2ccc3c(c2)c2ccc(N)cc2n3C)cc1Cl | 7.54 | 7.88 | 7.75 | 7.34 | 7.32 | – | – | –
COc1ccc(NS(=O)(=O)c2ccc3c(c2)c2ccc(O)cc2n3C)c(OC)n1 | 7.01 | 7.29 | 7.29 | 6.98 | 7.36 | < 100 µg/mL | – | Activity (MCF7 [12]): 39.03%; Activity (MCF7 [13]): Active; pIC50 (MCF7 [6]): 7.38; Activity (HMEC-1 [14]): Dose-Dependent Effect; pIC50 (HMEC-1 [9]): 8.19; Activity (MCF7 [15]): 5.65%; inhibition (HMEC-1 [16]): Active; pIC50 (NCI/ADR-RES): 7.05; Activity (MCF7 [17]): 0.04%; viability at 0.05 µM (MCF7 [18]): 45.6%
COc1ccc(NS(=O)(=O)c2ccc3c(c2)c2ccc(N)cc2n3C)cc1 | < 6.40 | < 6.40 | < 6.40 | < 6.40 | < 6.40 | – | – | –
COc1cc(NS(=O)(=O)c2ccc3c(c2)c2ccc(O)cc2n3C)cc(OC)c1OC | 7.41 | 7.84 | 7.37 | 7.50 | 7.46 | – | – | –
COc1ccc(NS(=O)(=O)c2ccc3c(c2)c2ccc(N)cc2n3C)c(OC)n1 | 7.45 | 7.23 | 6.96 | 7.39 | 7.48 | < 100 µg/mL | 6.28 | –
COc1ccc(NS(=O)(=O)c2ccc3c(c2)c2ccc(NC(=O)CN)cc2n3C)c(OC)n1.Cl | – | – | – | – | – | 500 µg/mL | 5.92 | –
COc1ccc(NS(=O)(=O)c2ccc3c(c2)c2ccc(NC(=O)[C@@H](N)C(C)C)cc2n3C)c(OC)n1.Cl | – | – | – | – | – | 4000 µg/mL | 6.32 | AUC(0-t) [19]: 2290 ng·h/mL; TGI (HepG2 [8]): Dose-Dependent Effect; MRT last [20]: 7.26 min; half-life [21]: 34.4 min; clearance [22]: 72.9 mL/min/kg; inhibition in vivo at 20 mg/kg (HepG2 [23]): 71%; C0 [24]: 22000 ng/mL; Activity [4]: Non-Toxic
COc1ccc(NS(=O)(=O)c2ccc3c(c2)c2ccc(NC(=O)CCCN4CCOCC4)cc2n3C)c(OC)n1.Cl | – | – | – | – | – | 6800 µg/mL | 5.07 | –
